Reference: US20120157547A1, “COMPOSITIONS AND APPLICATIONS OF CAROTENOIDS OF IMPROVED ABSORPTION AND BIOAVAILABILITY” (priority 2010, published 2012)
“And” between values parts separate entries of the source, which are not always exact repeats. Equal values may be shown once.

Legend:
[1] = Serum Lutein concentration by HPLC during 24 weeks of daily capsule ingestion (bioavailability evaluation); format: in vivo
Protocol: The evaluation was carried out over a period of 24 weeks with three (3) groups of subjects that ingested daily one gelatin capsule containing the following: • The first group ingested a capsule containing a dispersion of 20 mg of Micro-Mic™ in vegetable oil. • The second group ingested a gelatin capsule containing a dispersion of 20 mg of commercial crystalline Lutein dispersed in vegetable oil. • The third group ingested a gelatin capsule containing only vegetable oil (placebo). The three gelatin capsules were all the same color (dark brown). Blood samples were collected weekly and the serum analyzed for Lutein by HPLC, and the concentration was reported as (ng/ul) of Lutein The results obtained are shown for Baseline date, week 6th, week 12^t1, week 18th, and week 24th. The ratio between the concentrations at each week was divided by the Baseline concentration. The average of those ratios is reported at the base of each column.

[2] = Rate of increase in MPOD (Macular Pigment Optical Density) during 24 weeks of daily capsule ingestion; format: in vivo; conditions: 20 mg daily capsule
Protocol: The evaluation was carried out over a period of 24 weeks with three (3) groups of subjects that ingested daily one gelatin capsule containing the following: • The first group ingested a capsule containing a dispersion of 20 mg of Micro-Mic™ in vegetable oil. • The second group ingested a gelatin capsule containing a dispersion of 20 mg of commercial crystalline Lutein dispersed in vegetable oil. • The third group ingested a gelatin capsule containing only vegetable oil (placebo). The three gelatin capsules were all the same color (dark brown).
Rate of Increase in MPOD in Absorbance Units Per Week
The serum results are a better indicator of bioavailability than the macular pigment results. It is well established that some subjects are serum responders, but macular pigment non-responders. However in this evaluation the Micro-Mic™ group mean MPOD (Macular Pigment Optical Density) exceeds that of the crystalline Lutein subjects by approximately 14%.

Week 6/Baseline, group average ([1]; average of the subjects' ratios, week 6): 4.964
Week 12/Baseline, group average ([1]; average of the subjects' ratios, week 12): 4.492
Week 18/Baseline, group average ([1]; average of the subjects' ratios, week 18): 4.345
Week 24/Baseline, group average ([1]; average of the subjects' ratios, week 24): 3.931
Week 6-24/Baseline, group average ([1]; average of the subjects' ratios, weeks 6-24): 4.433
concentration at 6 weeks ([1]; human, serum, oral, 20 mg, serum, group average, week 6, 20 mg daily capsule in vegetable oil, read-out: Week 6 Lutein Conc. B, group average): 632 ng/mL
concentration at 12 weeks ([1]; human, serum, oral, 20 mg, serum, group average, week 12, 20 mg daily capsule in vegetable oil, read-out: Week 12 Lutein Conc. C, group average): 577 ng/mL
concentration at 18 weeks ([1]; human, serum, oral, 20 mg, serum, group average, week 18, 20 mg daily capsule in vegetable oil, read-out: Week 18 Lutein Conc. D, group average): 545 ng/mL
concentration at 24 weeks ([1]; human, serum, oral, 20 mg, serum, group average, week 24, 20 mg daily capsule in vegetable oil, read-out: Week 24 Lutein Conc. E, group average): 458 ng/mL
Baseline Lutein Conc. A, group average ([1]; serum, group average, baseline, group later given 20 mg daily capsule): 0.128 ng/µL
Structure (SMILES): CC1=C[C@H](O)CC(C)(C)[C@H]1/C=C/C(C)=C/C=C/C(C)=C/C=C/C=C(C)/C=C/C=C(C)/C=C/C1=C(C)C[C@@H](O)CC1(C)C [Lutein]
Week 6/Baseline ([1]; ratio of serum Lutein conc., individual subject, week 6): 3.934 and 4.235 and 3.335 and 4.201 and 5.425 and 2.914 and 8.047 and 8.611 and 2.624 and 6.314
Week 12/Baseline ([1]; ratio of serum Lutein conc., individual subject, week 12): 4.398 and 3.871 and 2.494 and 5.926 and 5.242 and 4.491 and 3.439 and 5.491 and 3.867 and 5.704
Week 18/Baseline ([1]; ratio of serum Lutein conc., individual subject, week 18): 3.608 and 2.273 and 2.296 and 4.321 and 11.494 and 2.395 and 3.171 and 7.268 and 2.283 and 4.335
Week 24/Baseline ([1]; ratio of serum Lutein conc., individual subject, week 24): 2.721 and 1.327 and 1.910 and 8.589 and 4.965 and 2.051 and 2.296 and 5.931 and 4.958 and 4.563
Week 6-24/Baseline ([1]; ratio of serum Lutein conc., individual subject, weeks 6-24): 3.665 and 2.927 and 2.509 and 5.759 and 6.782 and 2.963 and 4.238 and 6.825 and 3.433 and 5.229
Baseline Lutein Conc. A ([1]; serum, individual subject, baseline, group later given 20 mg daily capsule): 0.268 ng/ul and 0.108 ng/ul (3×) and 0.112 ng/ul and 0.063 ng/ul and 0.151 ng/ul and 0.119 ng/ul and 0.082 ng/ul and 0.164 ng/ul
Week 6 Lutein Conc. B ([1]; serum, individual subject, week 6, 20 mg daily capsule in vegetable oil): 1.054 ng/µL and 0.457 ng/µL and 0.372 ng/µL and 0.265 ng/µL and 0.584 ng/µL and 0.439 ng/µL and 0.867 ng/µL and 1.028 ng/µL and 0.215 ng/µL and 1.035 ng/µL
Week 12 Lutein Conc. C ([1]; serum, individual subject, week 12, 20 mg daily capsule in vegetable oil): 1.179 ng/µL and 0.418 ng/µL and 0.278 ng/µL and 0.373 ng/µL and 0.564 ng/µL and 0.677 ng/µL and 0.370 ng/µL and 0.655 ng/µL and 0.317 ng/µL and 0.935 ng/µL
Week 18 Lutein Conc. D ([1]; serum, individual subject, week 18, 20 mg daily capsule in vegetable oil): 0.967 ng/µL and 0.246 ng/µL and 0.256 ng/µL and 0.272 ng/µL and 1.238 ng/µL and 0.361 ng/µL and 0.341 ng/µL and 0.867 ng/µL and 0.187 ng/µL and 0.711 ng/µL
Week 24 Lutein Conc. E ([1]; serum, individual subject, week 24, 20 mg daily capsule in vegetable oil): 0.729 ng/µL and 0.143 ng/µL and 0.213 ng/µL and 0.541 ng/µL and 0.535 ng/µL and 0.309 ng/µL and 0.247 ng/µL and 0.708 ng/µL and 0.407 ng/µL and 0.748 ng/µL
Rate of Increase in MPOD, Max ([2]; group maximum): 5.100E−03 Absorbance Units Per Week
Rate of Increase in MPOD, Mean ([2]; group mean): 1.690E−03 Absorbance Units Per Week
Rate of Increase in MPOD, Median ([2]; group median): 1.550E−03 Absorbance Units Per Week
Rate of Increase in MPOD, Min ([2]; group minimum): −8.000E−04 Absorbance Units Per Week
